EP0241232A1, “Isoxazolylethanol derivatives” (SHIONOGI SEIYAKU KABUSHIKI KAISHA, priority 1986, dated 1987)

Legend:
[1] = tested on: Rhizoctonia solani; test: Control of cucumber damping-off by soil drench; format: in vivo; details: 30 ml per cup, judged 15 days after inoculation
Experimental: (§1) Damping-off was observed 15 days after sowing, and disease degree and control effect were obtained from the following equations. [formula] [formula] where diseased seedlings included damping-off and unemerged'seeds due to infection. For the foliar diseases, disease development was observed 10 - 14 days after inoculation of spores, and control effect was obtained by the following index.
The test compound was dissolved in a small amount of acetone and suspended in demineralized distilled water containing a spreader, to a concentration of 125 ppm and 31 ppm. The soil sterilized by an autoclave was put into paper cups (diameter : 7.5 cm; depth : 6 cm) and cucumber seeds (c.v. : Matsukaze) were sown in the cups (10 seeds/pot). Then the soil surface was covered with the following soil containing pathogen. And then 30 ml of the formation of the test compound was applied to the soil in the cup.
Rhizoctonia solani incubated in a bran medium at 28 °C for 5 days was put into sterile soil and cultured for 24 hr. The inoculated soil was diluted with sterile soil to about 4 times volume. The soil surface in the cups containing cucumber seeds was covered with the soil containing Rhizoctonia solani.
Control effect was judged 15 days after inoculation and control percent was obtained as described in Experiment 3.

[2] = tested on: Sphaerotheca fuliginea; test: Control by seed-soaking: powdery mildew in cucumber; format: in vivo
Experimental: (§2) The test compound was dissolved in 0.2 ml of acetone and suspended in demineralized distilled water containing a small amount of spreader, to a concentration of 500 ppm. The suspension was further diluted to one quarter dilution with demineralized distilled water (containing a small amount of spreader) to give a suspension in 125 ppm. All seeds of oats, wheat and cucumber were soaked in these suspensions at room temperature for an hour and then the seeds were air-dried.
(§3) The seeds as described above were sown in plastic pots (diameter : 9 cm). For rust and powdery mildews, the pots were kept in a glasshouse for 1 - 3 weeks until the seeds grew to young plants. The young oats (10 - 20 plants per pot) were inoculated by dusting with spores of Puccinia coronata, and the wheat (10 - 20 plants per pot) was also inoculated by spraying with spores of Erysiphe graminis f. sp. tritici, and the cucumber (1 plant per pot) was also inoculated by spraying with spore suspension of Sphaerotheca fuliginea. These inoculated plants were further kept in a glasshouse for 10 - 14 days until assessment. For damping-off, the treated seeds were sown in paper pots (diameter : 7.5 cm; depth : 6 cm) which contained soil infested with Rhizoctonia solani by mixing sterilized soil and pre-cultured fungus. Then the pots were kept in a humid glasshouse at 25 - 32 ^*C.
as §1

[3] = tested on: Candida albicans KE-2; test: Therapeutic effect against experimental candidiasis in mice; format: in vivo; details: KE2, po, 120 h, mouse survival ratio on the 5th day after infection, Jcl-ICR female mouse, 50 mg/kg orally three times (0, 4, 24 hours)
Experimental: After Candida albicans KE-2 was incubated on Sabouraud's glucose agar at 28 °C for 48 hr., it was suspended in Sabouraud's glucose broth and the cells ([…]) were injected to a tail vein of Jcl-ICR female mouse (4 weeks age; weight : 18 - 20 g). A suspension of the test compound in 2 % gum arabic was orally administered three times, immediately after infection of the yeast ( 0 hour), after 4 hours and after 24 hours, as a dosage of 50 mg/kg. Non-treated group was used as control. Each eight mice per group was used in control group and treated group. All the mice in control group died within 48 hr. after infection. Therapeutic effect of the test compound was judged by mouse survival ratio on the 5th day after infection.

[4] = tested on: Rhizoctonia solani; test: Control by seed-soaking: Rhizoctonia damping-off in cucumber; format: in vivo; details: 360 h, seed-soaking, observed 15 days after sowing, control effect by equation, read-out: Control Index Rhizoctonia Damping-Off in Cucumber
Experimental: as §2, §3, §1

[5] = tested on: Puccinia coronata; test: Control by seed-soaking: crown rust in oats; format: in vivo
Experimental: as §2, §3, §1

[6] = tested on: Erysiphe graminis f. sp. tritici; test: Control by seed-soaking: powdery mildew in wheat; format: in vivo
Experimental: as §2, §3, §1

[7] = tested on: Candida albicans KE-2; test: Inhibition test against pseudomycelium formation of Candida albicans; format: cell-based; details: KE2, minimum effective concentration preventing typical pseudomycelium formation, Eagle-MEM + 20 % calf serum, 18 hours at 37 °C, read-out: Inhibitory Concentration of Pseudo-myselium Formation
Experimental: Candida albicans KE-2 was inoculated to Eagle-MEM medium (Nissan 2 made by Nissui Seiyaku, Ltd.) supplemented with 20 % calf serum so that its final inoculum of yeast cell might be 1 x 10^6 yeast cells per milliliter. The test compounds were added thereon in two fold dilution series. After incubation for 18 hours at 37 °C, the fungal growth in each drug concentration was smeared and fixed on a slide glass, and the presence or absence of the pseudomycelium formation was examined by a microscope following Giemsa staining. Minimum effective concentration was defined as the lowest concentration of the compound which prevented typical pseudomycelium formation.

[8] = tested on: Sphaerotheca fuliginea; test: Control of cucumber powdery mildew by foliar spray; format: in vivo; details: observed 10 days after inoculation; for Control Index Preventive Effect: inoculation 24 hr. after application; for Control Index Curative Effect: inoculation 24 hr. before application
Experimental: The test compound was dissolved in a small amount of acetone and suspended in demineralized distilled water containing a spreader, to a concentration of 7.8 ppm and 2.0 ppm. Young cucumber plants (c.v. Tsukuba-Shiroibo) of 2-leaf stage grown in pots were sprayed sufficiently with the suspension.
Spores of Sphaerotheca fuliginea cultured in cucumber plants were collected and suspended in distilled water. Inoculation was made by spraying with the spore suspension to the test plant of 24 hr. after application of the test compound (preventive control) or 24 hr. before application (curative control).
Development of the disease was observed 10 days after inoculation and control index was obtained as described in Experiment 3.

Row | SMILES | Control ([1]; soil drench 31 ppm) | Control ([1]; soil drench 125 ppm) | Control Index Powdery Mildew in Cucumber ([2]; 125 ppm) | Control Index Powdery Mildew in Cucumber ([2]; 500 ppm) | responders at 50 mg/kg [3] | pest or weed control at 125 ppm [4] | pest or weed control at 500 ppm [4] | Control Index Crown Rust in Oats ([5]; 125 ppm) | Control Index Crown Rust in Oats ([5]; 500 ppm) | Control Index Powdery Mildew in Wheat ([6]; 125 ppm) | Control Index Powdery Mildew in Wheat ([6]; 500 ppm) | minimal effective concentration [7] | Control Index Preventive Effect ([8]; foliar spray 2.0 ppm) | Control Index Curative Effect ([8]; foliar spray 2.0 ppm) | Control Index Preventive Effect ([8]; foliar spray 7.8 ppm) | Control Index Curative Effect ([8]; foliar spray 7.8 ppm)
1 | OC(Cn1cncn1)(c1ccc(Cl)cc1)c1ccon1 (stereo not drawn) [Ia - 2] | 100% | 100% | 70 (Leaves covered with symptom between 16 % and 45 % area) | 90 (Leaves covered with symptom between 4 % and 15 % area) | 100% | 93% | 100% | 70 (Leaves covered with symptom between 16 % and 45 % area) | 100 | 100 | 100 | 0.04 µg/mL | 97 (Leaves covered with symptom less than 3 % area) | 100 | 100 | 100
2 | OC(Cn1cncn1)(c1ccon1)c1ccc(Cl)cc1Cl (stereo not drawn) [Ia - 3] | 100% | 100% | 50 (Leaves covered with symptom between 46 % and 65 % area) | 70 (Leaves covered with symptom between 16 % and 45 % area) | 100% | 100% | 94% | 97 (Leaves covered with symptom less than 3 % area) | 100 | 70 (Leaves covered with symptom between 16 % and 45 % area) | 100 | 0.02 µg/mL | 100 | 100 | 100 | 100
3 | OC(Cn1cncn1)(c1ccon1)c1ccc(F)cc1F (stereo not drawn) [Ia - 4] | 100% | 100% | 50 (Leaves covered with symptom between 46 % and 65 % area) | 70 (Leaves covered with symptom between 16 % and 45 % area) | 100% | 53% | 86% | 50 (Leaves covered with symptom between 46 % and 65 % area) | 97 (Leaves covered with symptom less than 3 % area) | 50 (Leaves covered with symptom between 46 % and 65 % area) | 100 | 0.16 µg/mL | 97 (Leaves covered with symptom less than 3 % area) | 100 | 100 | 100
